Laboratory results reported in patent US20130324412A1, “N-ALKOXYAMIDES OF 6-(SUBSTITUTED PHENYL)-4-AMINOPICOLINATES AND 2-(SUBSTITUTED PHENYL)-6-AMINO-4-PYRIMIDINECARBOXYLATES AND THEIR USE AS SELECTIVE HERBICIDES FOR CROPS” (DOW AGROSCIENCES LLC, priority 2009, published 2013).

Assays:
Assay type in all cases: in vivo
corn (Zea mays) = assay: Postemergence herbicidal activity in corn, crop; conditions: visual rating after 21 d, probit analysis, dose to kill or control 20 percent
Method: (§1) Seeds of corn and the desired weed species were planted in Sun Gro MetroMix 360 planting mixture, which typically has a pH of 6.0 to 6.8 and an organic matter content of about 30 percent, in plastic pots with a surface area of 95 cm^2. When required to ensure good germination and healthy plants, a fungicide treatment and/or other chemical or physical treatment was applied. The plants were grown for 7-21 d in a greenhouse with an approximate 15-h photoperiod which was maintained at about 23-29° C. during the day and 22-28° C. during the night. Nutrients and water were added on a regular basis and supplemental lighting was provided with overhead metal halide 1000-Watt lamps as necessary. The corn plants were utilized for testing when they reached the second true leaf stage. The weed species were utilized at the first or second true leaf stage.
(§2) A weighed amount, determined by the highest rate to be tested, of each test compound was dissolved in 4 mL of a 97:3 v/v mixture of acetone and DMSO to obtain concentrated stock solutions. […] The concentrated stock solutions obtained were diluted with 20 mL of an aqueous mixture containing acetone, water, isopropyl alcohol, DMSO, Atplus 411F crop oil concentrate, and Triton X-155 surfactant in a 48.5:39:10:1.5:1.0:0.02 v/v ratio to obtain spray solutions containing the highest application rates. […]
(§3) The treated plants and control plants were placed in a greenhouse as described above and watered by sub-irrigation to prevent wash-off of the test compounds. After 21 d, the condition of the test plants as compared with that of the untreated plants was determined visually and scored on a scale of 0 to 100 percent where 0 corresponds to no injury and 100 corresponds to complete kill. […]

[1] = test system: lambsquarters (Chenopodium album); assay: Postemergence herbicidal activity in corn, lambsquarters; conditions: corn test, visual rating after 21 d, probit analysis, dose to kill or control 80 percent
Method: as §1, §2, §3

[2] = test system: wild buckwheat (Polygonum convululus); assay: Postemergence herbicidal activity in corn, wild buckwheat; conditions: corn test, visual rating after 21 d, probit analysis, dose to kill or control 80 percent
Method: as §1, §2, §3

[3] = test system: sugar beet (Beta vulgaris); assay: Postemergence herbicidal activity in sugar beet, crop; design: unit not given here; conditions: visual rating after 21 d, probit analysis, dose to kill or control 20 percent
Method: as §1, with “sugar beet” for “corn”, “MetroMix®” for “MetroMix”, “15-28” for “7-21”, “third or fourth” for “second”, “fourth” for “first or second”
(§4) A weighed amount, determined by the highest rate to be tested, of each test compound was dissolved in 4 mL of a 97:3 v/v mixture of acetone and DMSO to obtain concentrated stock solutions. […] The concentrated stock solutions obtained were diluted with 20 mL of an aqueous mixture containing acetone, water and Agri-Dex crop oil concentrate, in a 16.7:82.1:1.25 v/v ratio to obtain spray solutions containing the highest application rates. Additional application rates were obtained by serial dilution of 12 mL of the high rate solution into a solution containing 2 mL of 97:3 v/v mixture of acetone and DMSO and 10 mL of an aqueous mixture containing acetone, water and Agri-Dex crop oil concentrate, in a 16.7:82.1:1.25 v/v ratio to obtain ½×, ¼×, ⅛× and 1/16× rates of the high rate. Compound requirements are based upon a 12 mL application volume at a rate of 187 L/ha. Formulated compounds were applied to the plant material with an overhead Mandel track sprayer equipped with 8002E nozzles calibrated to deliver 187 L/ha over an application area of 0.503 m^2 at a spray height of 18 inches (43 cm) above the average plant canopy height. Control plants were sprayed in the same manner with the solvent blank.
(§5) The treated plants and control plants were placed in a greenhouse as described above and watered by sub-irrigation to prevent wash-off of the test compounds. After 21 d, the condition of the test plants as compared with that of the untreated plants was determined visually and scored on a scale of 0 to 100 percent where 0 corresponds to no injury and 100 corresponds to complete kill.
(§6) By applying the well-accepted probit analysis as described by J. Berkson in Journal of the American Statistical Society 1953, 48, 565, and by D. Finney in “Probit Analysis” Cambridge University Press (1952), the above data can be used to calculate GR20 and GR80 values, which are defined as growth reduction factors that correspond to the effective dose of herbicide required to kill or control 20 percent or 80 percent, respectively, of a target plant.

[4] = test system: purple deadnettle (Lamium purpureum); assay: Postemergence herbicidal activity in sugar beet, purple deadnettle; design: unit not given here; conditions: sugar beet test, visual rating after 21 d, probit analysis, dose to kill or control 80 percent
Method: as §1, with “sugar beet” for “corn”, “MetroMix®” for “MetroMix”, “15-28” for “7-21”, “third or fourth” for “second”, “fourth” for “first or second”
as §4, §3

[5] = test system: lambsquarters (Chenopodium album); assay: Postemergence herbicidal activity in sugar beet, lambsquarters; design: unit not given here; conditions: sugar beet test, visual rating after 21 d, probit analysis, dose to kill or control 80 percent
Method: as §1, with “sugar beet” for “corn”, “MetroMix®” for “MetroMix”, “15-28” for “7-21”, “third or fourth” for “second”, “fourth” for “first or second”
as §4, §5, §6

Row | SMILES | ZEAMX GR20 (corn (Zea mays)) | CHEAL GR80 [1] | POLCO GR80 [2] | BEAVA GR20 [3] | LAMPU GR80 [4] | CHEAL GR80 [5]
1 | COc1c(Cl)ccc(-c2cc(N)c(Cl)c(C(=O)NOCC(C)C)n2)c1F [Compound 1, 4-amino-3-chloro-6-(4-chloro-2-fluoro-3-methoxyphenyl)-N-(2-methylpropoxy)picolinamide] | >35 g ai/ha | <4 g ai/ha | <4 g ai/ha | – | – | –
2 | CONC(=O)c1nc(-c2ccc(Cl)c(OC)c2F)cc(N)c1Cl [Compound 2, 4-Amino-3-chloro-6-(4-chloro-2-fluoro-3-methoxyphenyl)-N-methoxypicolinamide] | >35 g ai/ha | <4 g ai/ha | 6 g ai/ha | >35 | <4.38 | 21.5
